From patent US20230142090A1 (priority 2020, published 2023)
“Also recorded” adds a separate entry of the source. Like-named read-outs stand apart in the source and are kept apart here.

What was measured:
hilA expression = format: cell-based
[1] = tested on: cholera toxin genes ctxAB; format: cell-based, Vibrio cholerae C6706 EI Tor strain
[2] = tested on: HEp-2 cell invasion by Salmonella; format: cell-based
HilC = target: T1, HilC (Salmonella typhimurium, UniProt P0CL09); format: binding
T1 sequence (P0CL09 1-295): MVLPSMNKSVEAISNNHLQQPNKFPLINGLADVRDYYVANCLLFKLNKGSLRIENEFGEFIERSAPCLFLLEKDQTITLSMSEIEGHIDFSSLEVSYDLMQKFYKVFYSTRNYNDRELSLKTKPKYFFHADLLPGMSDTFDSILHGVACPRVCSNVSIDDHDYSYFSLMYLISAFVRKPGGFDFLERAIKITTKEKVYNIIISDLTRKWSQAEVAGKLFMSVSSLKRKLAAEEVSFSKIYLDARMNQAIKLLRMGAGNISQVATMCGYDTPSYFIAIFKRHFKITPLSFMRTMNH

HilD [3] = target: HilD (Salmonella typhimurium, UniProt P0CL08); format: cell-based
[4] = tested on: toxin co-regulated pili gene (tcpA); format: cell-based, Vibrio cholerae
cholera toxin = format: cell-based, V. cholerae Haiti and N16961
sopB expression = format: cell-based
RtsA = format: binding, Salmonella
Salmonella = format: cell-based
[5] = tested on: Salmonella SPI1 expression (sicA-GFP); design: species or system C57BL/6 mice; conditions: mouse, in vivo
HilD [6] = target: T2, HilD (Salmonella typhimurium, UniProt P0CL08); format: binding
T2 construct: 6×His-NusA (followed by HRV 3C protease site) (N, cleaved yes); made in house; host or cells: E. coli BL21(DE3)
T2 sequence (P0CL08 1-309): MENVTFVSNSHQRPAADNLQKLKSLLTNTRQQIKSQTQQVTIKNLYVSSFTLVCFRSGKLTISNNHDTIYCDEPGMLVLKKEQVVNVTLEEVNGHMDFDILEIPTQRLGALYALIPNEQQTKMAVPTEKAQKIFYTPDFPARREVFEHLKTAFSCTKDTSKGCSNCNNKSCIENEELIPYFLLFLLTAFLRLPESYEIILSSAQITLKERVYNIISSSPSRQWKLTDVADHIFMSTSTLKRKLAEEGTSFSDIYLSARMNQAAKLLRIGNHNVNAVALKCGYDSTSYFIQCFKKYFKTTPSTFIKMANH

[7] = hilC and rtsA deleted, hilD under tetracycline-inducible promoter, 20 μM (FIG. 4C)

In the case of `CCCCCCCCCCCCCCCCC/C=C\C(=O)OC` [cis-2-eicosenoic acid methyl ester], the “repression of hilA expression by methyl ester” value (hilA expression) is reported as “not to significantly repress hilA expression”.
`O=C(O)CCCN1C(=O)c2cccc3cccc(c23)C1=O` [virstatin, reference compound] was tested, and the “repression of ctxAB” value [1] was 1.2 fold.
With `CCCCCCCCCCCCCCCCC/C=C\C(=O)O` [cis-2-eicosenoic acid, (Z)-icos-2-enoic acid] the “reduction of hilA expression, chain length comparison” value (“reduction … chain length comparison” below) (hilA expression; FIG. 1F) was 10 fold and the “repression of hilA in the presence of hilD only” value (“repression … of hilD only” below) (hilA expression; [7]) was 3 fold.
With `CCCCCCCCC/C=C\C(=O)O` [cis-2-dodecenoic acid, (Z)-dodec-2-enoic acid] the “potency in repressing invasion genes relative to c2-HDA” value (hilA expression) was “less potent in repressing invasion genes than c2-HDA” and the “reduction … chain length comparison” value (hilA expression; FIG. 1F) was 3 fold.
`CCCCCCCCCCCCC/C=C\C(=O)OC` [cis-2-hexadecenoic acid methyl ester] was tested, and the “repression of hilA expression by methyl ester” value (hilA expression) was “not to significantly repress hilA expression”.
`CCCCCCCCCCCCCCCC(=O)O` [palmitic acid, reference compound] was tested, and the “repression of ctxAB” value [1] was “no repressive effects”.
With `CCCCCCCCCCCCC/C=C\C(=O)O` [c2-HDA, (Z)-hexadec-2-enoic acid] the “decrease of invasion of HEp-2 cells compared to untreated cultures” value [2] was 78%, the “binding of HilC to the hilA promoter” value (HilC) was “preventing binding; also recorded: partially inhibited binding; also recorded: prevented binding; also recorded: did so partially” and the “effect on HilD stability in the absence of Lon” value (HilD [3]) was “no effect on its stability”. The “concentrations at which effects on virulence gene expression were apparent” value [1] was no less than 5 µM, the “repression of ctxAB” value [1] was 20 fold and the “repression of virulence gene expression compared to Virstatin” value [1] was “repressed much more efficiently”. The “expression of tcpA” value [4] was “represses expression”, the “inhibition of hilA expression” value (hilA expression) was 39% and the “less potent in repressing hilA compared to the wild type” value (hilA expression) was 39%. The “reduction of hilA expression in the presence of only hilC” value (hilA expression) was 20 fold, the “reduction of hilA expression in the presence of only rtsA” value (hilA expression) was 13 fold and the “reduction … chain length comparison” value (hilA expression) was 159 fold. For the same compound, the “repression of hilA expression in the absence of Lon” value (hilA expression) was “continued to repress hilA expression”, the “repression … of hilD only” value (hilA expression) was 78 fold and the “cholera toxin secretion / toxin amounts in the culture media” value (cholera toxin) was “reduced; also recorded: reduces cholera toxin secretion”. For the same compound, the “inhibition of sopB expression in Δlon and ΔhilE mutants” value (sopB expression) was “inhibited sopB expression in these mutants to the level observed in the wild type strain”, the “repression of sopB” value (sopB expression) was 11 fold and the “repression of sopB expression” value (sopB expression) was 68 fold. The “binding of RtsA to the hilA promoter” value (RtsA) was “preventing binding; also recorded: partially inhibited binding; also recorded: prevented binding; also recorded: did so partially”, the “effect on bacterial growth” value (Salmonella) was “did not impair bacterial growth” and the “reduction of the percentage of bacteria expressing SPI1 in the caecum” value [5] was 2 fold. The “binding of HilD to the hilA promoter” value (HilD [6]) was “prevented the binding; also recorded: partially inhibited binding; also recorded: completely inhibited; also recorded: did so partially”.
`CCCCCCCCCCCCC/C=C/C(=O)O` [trans-2-hexadecenoic acid, reference compound] was tested, and the “fold less potent in repressing hilA than the cis-isomer” value (hilA expression; 20 μM fatty acids (FIG. 1A)) was 31 fold.
With `CCCCCCC/C=C\C(=O)O` [cis-2-decenoic acid, (Z)-dec-2-enoic acid] the “reduction … chain length comparison” value (hilA expression; FIG. 1F) was 28%.
With `CCCCCCCC/C=C\CCCCCCCC(=O)O` [oleic acid, cis-9-octadecenoic acid, reference compound] the “decrease of invasion of HEp-2 cells compared to untreated cultures” value ([2]; overnight growth with 20 μM compound) was 70%, the “repression of ctxAB” value [1] was 1.3 fold and the “repression of hilA expression” value (hilA expression; 5 μM, hilA::luxCDABE, wild type (FIG. 1A)) was 1.3 fold. For the same compound, the “repression … of hilD only” value (hilA expression; [7]) was 1.2 fold.
In the case of `CC(C)CCCCCCC/C=C\C(=O)O` [cis-11-methyl-2-dodecenoic acid], the “potency in repressing invasion genes relative to c2-HDA” value (hilA expression) is reported as “less potent in repressing invasion genes than c2-HDA”.
